According to PubChem BioAssay AID1259407 (Chemical Carcinogenesis Research Information System (CCRIS), 2018):
Calls of active or inactive are those of the source. The rule behind the calls is not given here.

System: CCRIS mutagenicity, Ames/micronucleus/aberration tests
Assay: CCRIS mutagenicity studies
[1] = Test System: AMES SALMONELLA TYPHIMURIUM, Strain/Indicator: TA98, Metabolic Activation: NONE, Method: STANDARD PLATE
[2] = Test System: AMES SALMONELLA TYPHIMURIUM, Strain/Indicator: TA100, Metabolic Activation: NONE, Method: STANDARD PLATE
[3] = Test System: AMES SALMONELLA TYPHIMURIUM, Strain/Indicator: TA100, Metabolic Activation: RAT, LIVER, S-9, AROCLOR 1254, Method: STANDARD PLATE
[4] = Test System: AMES SALMONELLA TYPHIMURIUM, Strain/Indicator: TA100, Metabolic Activation: NONE, Method: PREINCUBATION

Question: What does the source list for `O=C(CCl)CCl`?
Answer: mutagenic call [1]: inactive; negative; mutagenic call (Test System: AMES SALMONELLA TYPHIMURIUM, Strain/Indicator: TA100, Metabolic Activation: NONE, Method: FLUCTUATION TEST): active; positive; mutagenic call [2]: active; positive; mutagenic call (Test System: AMES SALMONELLA TYPHIMURIUM, Strain/Indicator: TA100, Metabolic Activation: RAT, LIVER, S-9, AROCLOR 1254, Method: FLUCTUATION TEST): inactive; negative; mutagenic call [3]: active; positive; mutagenic call (Test System: AMES SALMONELLA TYPHIMURIUM, Strain/Indicator: TA1535, Metabolic Activation: NONE, Method: STANDARD PLATE): active; positive; mutagenic call (Test System: AMES SALMONELLA TYPHIMURIUM, Strain/Indicator: TA1535, Metabolic Activation: RAT, LIVER, S-9, AROCLOR 1254, Method: STANDARD PLATE): active; positive

Question: With `COc1ccc2c(c1)C(=O)c1nccc3cc4c(c-2c13)OCO4` as the molecule, how does the mutagenic call (Test System: AMES SALMONELLA TYPHIMURIUM, Strain/Indicator: TA98, Metabolic Activation: RAT, LIVER, S-9, PHENOBARBITAL AND BETA-NAPHTHOFLAVONE, Method: PREINCUBATION) read?
Answer: active; positive

Question: And the mutagenic call (Test System: AMES SALMONELLA TYPHIMURIUM, Strain/Indicator: TA100, Metabolic Activation: RAT, LIVER, S-9, PHENOBARBITAL AND BETA-NAPHTHOFLAVONE, Method: PREINCUBATION)?
Answer: active; positive

Question: How did the mutagenic call (Test System: AMES SALMONELLA TYPHIMURIUM, Strain/Indicator: TA1538, Metabolic Activation: RAT, LIVER, S-9, AROCLOR 1254, Method: STANDARD PLATE) turn out when `CC1(C)Cc2ncccc2-c2nc(N)sc21` was run?
Answer: active; positive

Question: How did the mutagenic call (Test System: AMES SALMONELLA TYPHIMURIUM, Strain/Indicator: TA97, Metabolic Activation: HAMSTER, LIVER, S-9, AROCLOR 1254 (10 OR 30%), Method: PREINCUBATION) turn out when `Clc1nc(Cl)nc(Nc2ccccc2Cl)n1` was run?
Answer: inactive; negative

Question: And the mutagenic call (Test System: AMES SALMONELLA TYPHIMURIUM, Strain/Indicator: TA97, Metabolic Activation: RAT, LIVER, S-9, AROCLOR 1254 (10 OR 30%), Method: PREINCUBATION)?
Answer: inactive; negative

Question: And the mutagenic call (Test System: AMES SALMONELLA TYPHIMURIUM, Strain/Indicator: TA98, Metabolic Activation: HAMSTER, LIVER, S-9, AROCLOR 1254 (10%), Method: PREINCUBATION)?
Answer: inactive; negative

Question: What about the mutagenic call (Test System: AMES SALMONELLA TYPHIMURIUM, Strain/Indicator: TA98, Metabolic Activation: HAMSTER, LIVER, S-9, AROCLOR 1254 (30%), Method: PREINCUBATION) of the same molecule?
Answer: inactive; negative

Question: What about the mutagenic call (Test System: AMES SALMONELLA TYPHIMURIUM, Strain/Indicator: TA98, Metabolic Activation: RAT, LIVER, S-9, AROCLOR 1254 (10%), Method: PREINCUBATION) of the same molecule?
Answer: inactive; negative

Question: And the mutagenic call (Test System: AMES SALMONELLA TYPHIMURIUM, Strain/Indicator: TA98, Metabolic Activation: RAT, LIVER, S-9, AROCLOR 1254 (30%), Method: PREINCUBATION)?
Answer: inactive; negative

Question: And the mutagenic call (Test System: AMES SALMONELLA TYPHIMURIUM, Strain/Indicator: TA100, Metabolic Activation: HAMSTER, LIVER, S-9, AROCLOR 1254 (10%), Method: PREINCUBATION)?
Answer: inactive; negative

Question: And the mutagenic call (Test System: AMES SALMONELLA TYPHIMURIUM, Strain/Indicator: TA100, Metabolic Activation: HAMSTER, LIVER, S-9, AROCLOR 1254 (30%), Method: PREINCUBATION)?
Answer: inactive; negative

Question: What about the mutagenic call [4] of the same molecule?
Answer: inactive; negative

Question: And the mutagenic call (Test System: AMES SALMONELLA TYPHIMURIUM, Strain/Indicator: TA100, Metabolic Activation: RAT, LIVER, S-9, AROCLOR 1254 (10%), Method: PREINCUBATION)?
Answer: inactive; negative

Question: What about the mutagenic call (Test System: AMES SALMONELLA TYPHIMURIUM, Strain/Indicator: TA100, Metabolic Activation: RAT, LIVER, S-9, AROCLOR 1254 (30%), Method: PREINCUBATION) of the same molecule?
Answer: inactive; negative

Question: What about the mutagenic call (Test System: AMES SALMONELLA TYPHIMURIUM, Strain/Indicator: TA1535, Metabolic Activation: HAMSTER, LIVER, S-9, AROCLOR 1254 (10 OR 30%), Method: PREINCUBATION) of the same molecule?
Answer: inactive; negative

Question: What about the mutagenic call (Test System: AMES SALMONELLA TYPHIMURIUM, Strain/Indicator: TA1535, Metabolic Activation: RAT, LIVER, S-9, AROCLOR 1254 (10 OR 30%), Method: PREINCUBATION) of the same molecule?
Answer: inactive; negative

Question: And the mutagenic call (Test System: AMES SALMONELLA TYPHIMURIUM, Strain/Indicator: TA1537, Metabolic Activation: HAMSTER, LIVER, S-9, AROCLOR 1254 (10 OR 30%), Method: PREINCUBATION)?
Answer: inactive; negative

Question: And the mutagenic call (Test System: AMES SALMONELLA TYPHIMURIUM, Strain/Indicator: TA1537, Metabolic Activation: RAT, LIVER, S-9, AROCLOR 1254 (10 OR 30%), Method: PREINCUBATION)?
Answer: inactive; negative

Question: And the mutagenic call (Test System: CHINESE HAMSTER OVARY, Strain/Indicator: CHO-K1-BH4 (HGPRT)/6-THIOGUANINE, Metabolic Activation: NONE)?
Answer: inactive; negative

Question: And the mutagenic call (Test System: CHINESE HAMSTER OVARY, Strain/Indicator: CHO-K1-BH4 (HGPRT)/6-THIOGUANINE, Metabolic Activation: S-9)?
Answer: inactive; negative

Question: What about the mutagenic call (Test System: E. COLI, Strain/Indicator: WP2 UVRA, Metabolic Activation: HAMSTER, LIVER, S-9, AROCLOR 1254, Method: STANDARD PLATE) of the same molecule?
Answer: inactive; negative

Question: And the mutagenic call (Test System: E. COLI, Strain/Indicator: WP2 UVRA, Metabolic Activation: HAMSTER, LIVER, S-9, Method: STANDARD PLATE)?
Answer: inactive; negative

Question: And the mutagenic call (Test System: E. COLI, Strain/Indicator: WP2 UVRA, Metabolic Activation: MOUSE, LIVER, S-9, AROCLOR 1254, Method: STANDARD PLATE)?
Answer: inactive; negative

Question: What about the mutagenic call (Test System: E. COLI, Strain/Indicator: WP2 UVRA, Metabolic Activation: MOUSE, LIVER, S-9, Method: STANDARD PLATE) of the same molecule?
Answer: inactive; negative

Question: And the mutagenic call (Test System: E. COLI, Strain/Indicator: WP2 UVRA, Metabolic Activation: NONE, Method: STANDARD PLATE)?
Answer: inactive; negative

Question: And the mutagenic call (Test System: E. COLI, Strain/Indicator: WP2 UVRA, Metabolic Activation: RAT, LIVER, S-9, AROCLOR 1254, Method: STANDARD PLATE)?
Answer: inactive; negative

Question: And the mutagenic call (Test System: E. COLI, Strain/Indicator: WP2 UVRA, Metabolic Activation: RAT, LIVER, S-9, Method: STANDARD PLATE)?
Answer: inactive; negative

Question: What about the mutagenic call (Test System: MOUSE LYMPHOMA, Strain/Indicator: L5178Y (TK+/TK-), Metabolic Activation: NONE, Method: SUSPENSION/PLATE) of the same molecule?
Answer: active; positive

Question: What about the mutagenic call (Test System: MOUSE LYMPHOMA, Strain/Indicator: L5178Y (TK+/TK-), Metabolic Activation: RAT, LIVER, S-9, AROCLOR 1254, Method: SUSPENSION/PLATE) of the same molecule?
Answer: active; positive

Question: Which mutagenic call (Test System: AMES SALMONELLA TYPHIMURIUM, Strain/Indicator: TA98, Metabolic Activation: NONE, Method: PREINCUBATION) does the source give for `CC(C)S(=O)(=O)Cl` here?
Answer: inactive; negative

Question: And the mutagenic call (Test System: AMES SALMONELLA TYPHIMURIUM, Strain/Indicator: TA98, Metabolic Activation: RAT, LIVER, S-9, PHENOBARBITAL, Method: PREINCUBATION)?
Answer: active; positive

Question: And the mutagenic call [4]?
Answer: active; positive

Question: What about the mutagenic call (Test System: AMES SALMONELLA TYPHIMURIUM, Strain/Indicator: TA100, Metabolic Activation: RAT, LIVER, S-9, PHENOBARBITAL, Method: PREINCUBATION) of the same molecule?
Answer: active; positive

Question: For `O=C(O)COc1ccc(C(=O)c2cccs2)c(Cl)c1Cl`, which mutagenic call (Test System: AMES SALMONELLA TYPHIMURIUM, Strain/Indicator: TA100(FR1), Metabolic Activation: NONE, Method: STANDARD PLATE) is on record?
Answer: inactive; negative

Question: And the mutagenic call (Test System: AMES SALMONELLA TYPHIMURIUM, Strain/Indicator: TA100(FR1), Metabolic Activation: RAT, LIVER, S-9, PHENOBARBITAL AND 3-METHYLCHOLANTHRENE, Method: STANDARD PLATE)?
Answer: inactive; negative

Question: And the mutagenic call [2]?
Answer: inactive; negative

Question: What about the mutagenic call (Test System: AMES SALMONELLA TYPHIMURIUM, Strain/Indicator: TA100, Metabolic Activation: RAT, LIVER, S-9, PHENOBARBITAL AND 3-METHYLCHOLANTHRENE, Method: STANDARD PLATE) of the same molecule?
Answer: inactive; negative

Question: And the mutagenic call (Test System: CHINESE HAMSTER V-79, Strain/Indicator: V-79/6-THIOGUANINE, Metabolic Activation: NONE)?
Answer: inactive; negative

Question: And the mutagenic call (Test System: CHINESE HAMSTER V-79, Strain/Indicator: V-79/6-THIOGUANINE, Metabolic Activation: RAT, LIVER, HEPATOCYTES (SHERMAN OR SPRAGUE-DAWLEY RATS))?
Answer: inactive; negative

Question: And the mutagenic call (Test System: CHINESE HAMSTER V-79, Strain/Indicator: V-79/OUABAIN, Metabolic Activation: NONE)?
Answer: active; positive

Question: What about the mutagenic call (Test System: CHINESE HAMSTER V-79, Strain/Indicator: V-79/OUABAIN, Metabolic Activation: RAT, LIVER, HEPATOCYTES (SHERMAN OR SPRAGUE-DAWLEY RATS)) of the same molecule?
Answer: active; positive

Question: `CCN(CC)c1ccc(N=Nc2c(Cl)cc([N+](=O)[O-])cc2[N+](=O)[O-])c(NC(C)=O)c1` was tested. Which mutagenic call (End Point: IN VITRO CHROMOSOMAL ABERRATIONS, Test System: CHL CELLS, Metabolic Activation: NONE) did it give?
Answer: inactive; negative; precipitation of test chemical observed above 0.01 mg/ml

Question: `ClC(Cl)=C(Cl)c1c(Cl)c(Cl)c(Cl)c(Cl)c1Cl` was tested. Which mutagenic call [1] did it give?
Answer: inactive; negative

Question: And the mutagenic call (Test System: AMES SALMONELLA TYPHIMURIUM, Strain/Indicator: TA98, Metabolic Activation: RAT, LIVER, S-9, AROCLOR 1254, Method: STANDARD PLATE)?
Answer: inactive; negative

Question: And the mutagenic call [2]?
Answer: inactive; negative

Question: What about the mutagenic call [3] of the same molecule?
Answer: inactive; negative
